From patent US7897602B2, “Indolinone compounds as kinase inhibitors” (Development Center for Biotechnology, priority 2009, dated 2011)

Key:
Type in all cases: biochemical
VEGFR2 kinase = biological target: T1, VEGFR2 kinase (Homo sapiens, UniProt P35968); test: VEGFR2 kinase assay (33P incorporation into Poly(Glu-Tyr)); conditions: 500 nM test compound; read-out: Inhibition at 500 nM (%) VEGFr-2
T1 construct: recombinant N-terminal 6×His-tagged VEGFR2 kinase domain construct expressed by baculovirus; 6xHis (N); made in house
T1 sequence (P35968 834-1162 limits assumed): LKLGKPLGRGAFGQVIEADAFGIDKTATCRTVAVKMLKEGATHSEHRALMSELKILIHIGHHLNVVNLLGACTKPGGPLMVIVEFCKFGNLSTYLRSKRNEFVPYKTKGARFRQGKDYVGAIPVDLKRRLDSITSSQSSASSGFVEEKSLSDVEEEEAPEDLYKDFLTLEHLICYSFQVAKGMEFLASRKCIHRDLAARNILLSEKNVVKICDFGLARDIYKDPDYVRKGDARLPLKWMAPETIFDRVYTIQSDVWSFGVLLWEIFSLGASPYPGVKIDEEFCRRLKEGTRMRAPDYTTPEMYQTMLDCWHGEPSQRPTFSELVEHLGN
Outline: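 Recombinant baculovirus-expressed N-terminal His6-tagged VEGFR2 kinase domain (6.25 ng) phosphorylated poly(Glu-Tyr) 4:1 with 100 μM ATP plus [33P]-γ-ATP in MOPS pH 7.0, 30 °C, 30 min. Test compound was at 500 nM (4% DMSO). Filter-retained radioactivity relative to DMSO control gave % inhibition.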

Aurora B kinase = biological target: T2, Aurora B kinase (Homo sapiens, UniProt Q96GD4); test: Aurora B kinase assay ([γ-33P]ATP, CHOCKtide substrate); conditions: 1.0 μM test compound
T2 construct: purchased Cell signaling
T2 sequence (Q96GD4 whole entry): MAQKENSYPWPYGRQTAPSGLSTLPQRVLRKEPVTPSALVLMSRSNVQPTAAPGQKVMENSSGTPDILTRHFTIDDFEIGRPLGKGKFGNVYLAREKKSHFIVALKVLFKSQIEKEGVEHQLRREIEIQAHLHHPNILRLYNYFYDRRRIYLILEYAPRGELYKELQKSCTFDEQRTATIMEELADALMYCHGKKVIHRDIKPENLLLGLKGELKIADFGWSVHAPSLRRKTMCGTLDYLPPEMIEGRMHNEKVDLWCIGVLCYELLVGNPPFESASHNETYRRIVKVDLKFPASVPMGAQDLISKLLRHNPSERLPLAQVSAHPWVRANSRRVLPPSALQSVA
Outline: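 Recombinant Aurora A (1 ng) or Aurora B (2.5 ng) incubated with test compound, CHOCKtide (1 μg) and [γ-33P]ATP/ATP at 10 μM (Aurora A) or 40 μM (Aurora B), 30 min at 33 °C. Stopped with phosphoric acid; filter-bound 33P counted; IC50 = half-maximal inhibition.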

c-Met kinase = biological target: T3, c-Met kinase (Homo sapiens, UniProt P08581); test: c-Met kinase assay (33P incorporation into Poly(Glu-Tyr)); conditions: 500 nM test compound
T3 construct: recombinant N-terminal 6×His-tagged c-Met kinase domain construct expressed from baculovirus; 6xHis (N); made in house
T3 sequence (P08581 1078-1345 limits assumed): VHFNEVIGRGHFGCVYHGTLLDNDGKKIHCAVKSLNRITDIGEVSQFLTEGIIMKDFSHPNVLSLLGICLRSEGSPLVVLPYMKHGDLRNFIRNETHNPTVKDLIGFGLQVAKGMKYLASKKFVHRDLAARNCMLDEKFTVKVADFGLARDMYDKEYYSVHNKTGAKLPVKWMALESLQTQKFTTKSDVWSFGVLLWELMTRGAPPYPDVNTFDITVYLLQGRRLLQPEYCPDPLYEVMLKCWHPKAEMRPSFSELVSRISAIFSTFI
Outline: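 Recombinant N-terminal 6×His-tagged c-Met kinase domain (baculovirus-expressed, 5 ng) acted on Poly(Glu-Tyr) 4:1 with 100 μM ATP plus [33P]-γ-ATP in MOPS pH 7.0 buffer, 30 min at 30° C. Compound was at 500 nM. Filter-retained radioactivity was compared with the DMSO control to give percent inhibition.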

PDGFR-β kinase = biological target: T4, PDGFR-β kinase (Homo sapiens, UniProt P09619); test: PDGFR-β kinase assay (33P incorporation into Poly(Glu-Tyr)); conditions: 500 nM test compound
T4 construct: recombinant N-terminal 6×His-tagged PDGFR-β kinase domain construct expressed by baculovirus; 6xHis (N); made in house
T4 sequence (P09619 600-962 limits assumed): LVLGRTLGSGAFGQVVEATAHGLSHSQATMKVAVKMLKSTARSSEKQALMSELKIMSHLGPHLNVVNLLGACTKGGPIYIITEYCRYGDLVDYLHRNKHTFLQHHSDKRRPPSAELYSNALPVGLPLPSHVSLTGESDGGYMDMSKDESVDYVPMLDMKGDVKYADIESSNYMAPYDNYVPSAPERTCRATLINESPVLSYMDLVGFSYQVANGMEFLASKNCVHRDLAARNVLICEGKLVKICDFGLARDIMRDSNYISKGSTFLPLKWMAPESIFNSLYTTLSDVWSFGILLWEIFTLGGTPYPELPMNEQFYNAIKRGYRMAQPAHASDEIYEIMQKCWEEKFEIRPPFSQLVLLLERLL
Outline: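 His-tagged PDGFR-β kinase domain (55 ng) with Poly(Glu-Tyr) 4:1, 30 μM ATP plus [33P]-γ-ATP, pH 7.0 MnCl2 buffer, and 500 nM compound for 30 min at 30° C. Filter-bound radioactivity counted; inhibition computed relative to DMSO control.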

| SMILES | inhibition at 0.5 µM (VEGFR2 kinase) [%] | inhibition at 1 µM (Aurora B kinase) [%] | inhibition at 0.5 µM (c-Met kinase) [%] | inhibition at 0.5 µM (PDGFR-β kinase) [%] |
| --- | --- | --- | --- | --- |
| CCOC(=O)CCc1c(/C=C2\C(=O)Nc3ccc(NC(=O)c4ccc(OC)cc4)cc32)[nH]c2c1C(=O)CCC2 [DCB-70141, (Z)-ethyl 3-(2-((5-(4-methoxybenzamido)-2-oxoindolin-3-ylidene)methyl)-4-oxo-4,5,6,7-tetrahydro-1H-indol-3-yl)propanoate] | 28.9 | -23 | -1.2 | 1.4 |
| COc1ccc(C(=O)Nc2ccc3c(c2)/C(=C/c2[nH]c4c(c2CCC(=O)O)C(=O)CCC4)C(=O)N3)cc1 [DCB-70143, (Z)-3-(2-((5-(4-methoxybenzamido)-2-oxoindolin-3-ylidene)methyl)-4-oxo-4,5,6,7-tetrahydro-1H-indol-3-yl)propanoic acid] | 38.1 | 9.1 | -8.2 | 1 |
| CN(c1cccc(Cl)c1)S(=O)(=O)c1ccc2c(c1)/C(=C/c1[nH]c3c(c1CCC(=O)O)C(=O)CCCC3)C(=O)N2 [DCB-70148, (Z)-3-(2-((5-(N-(3-chlorophenyl)-N-methylsulfamoyl)-2-oxoindolin-3-ylidene)methyl)-4-oxo-1,4,5,6,7,8-hexahydrocyclohepta[b]pyrrol-3-yl)propanoic acid] | 67.6 | 30.2 | 74.9 | 16.1 |
| O=C(O)CCc1c(/C=C2\C(=O)Nc3ccc(S(=O)(=O)Nc4ccc(F)c(Cl)c4)cc32)[nH]c2c1C(=O)CCCC2 [DCB-70149, (Z)-3-(2-((5-(N-(3-chloro-4-fluorophenyl)sulfamoyl)-2-oxoindolin-3-ylidene)methyl)-4-oxo-1,4,5,6,7,8-hexahydrocyclohepta[b]pyrrol-3-yl)propanoic acid] | 57.5 | 18.7 | 8.4 | 10.8 |
